Measurements reported in patent publication US20030162762A1, “Novel cephalosporin compounds and process for preparing the same” (priority 2000, published 2003).
Converted amounts (≈) assume the structure as drawn.

Key:
Test in all cases: Minimum Inhibitory Concentration (MIC), agar dilution, standard strains
E. faecalis L239 = format: cell-based; details: Table 1, Mueller-Hinton agar, 37° C., 20 hours; for MIC: Enterococcus faecalis, L239, read-out: Minimum Inhibitory Concentration, E. faecalis L239
Experimental: (§1) The effectiveness of the compound according to the present invention was determined by obtaining Minimum Inhibitory Concentration (MIC) of the compounds prepared by the above examples (Compounds I-1 to I-41) and vancomycin, which is the known compound having a potent activity against gram-positive strains, as the control drug against the standard strains. Specifically, Minimum Inhibitory Concentration was obtained by diluting the test compound according to a double dilution method, dispersing them in Mueller-Hinton agar medium, inoculating each of the test strain having 10^7 cfu (colony forming unit) per ml in an amount of 2 μl to the medium and then incubating them at 37° C. for 20 hours. From the result of Minimum Inhibitory Concentration test, it can be seen that the compound according to the present invention has a good activity against major pathogenic microorganisms, which cause hospital infection, including MRSA strains.

S. epidermidis R005 = format: cell-based; details: Table 1, Mueller-Hinton agar, 37° C., 20 hours; for MIC: Staphylococcus epidermidis, R005, read-out: Minimum Inhibitory Concentration, S. epidermidis R005
Experimental: as §1

[1] = tested on: Staphylococcus aureus giorgio; format: cell-based; details: Table 1, Mueller-Hinton agar, 37° C., 20 hours; for MIC: Staphylococcus aureus, read-out: Minimum Inhibitory Concentration, Staphylococcus aureus giorgio
Experimental: as §1

S. aureus 77 = format: cell-based, Staphylococcus aureus; details: Table 1, Mueller-Hinton agar, 37° C., 20 hours; for MIC: Staphylococcus aureus, 77, read-out: Minimum Inhibitory Concentration, S. aureus 77
Experimental: as §1

S. aureus 241 = format: cell-based, Staphylococcus aureus; details: Table 1, Mueller-Hinton agar, 37° C., 20 hours; for MIC: Staphylococcus aureus, 241, read-out: Minimum Inhibitory Concentration, S. aureus 241
Experimental: as §1

Compound	Minimum Inhibitory Concentration, E. faecalis L239 (E. faecalis L239) [µg/mL]	Minimum Inhibitory Concentration, S. epidermidis R005 (S. epidermidis R005) [µg/mL]	Minimum Inhibitory Concentration, Staphylococcus aureus giorgio [1] [µg/mL]	Minimum Inhibitory Concentration, S. aureus 77 (S. aureus 77) [µg/mL]	Minimum Inhibitory Concentration, S. aureus 241 (S. aureus 241) [µg/mL]	MIC (E. faecalis L239) [µg/mL]	MIC (S. epidermidis R005) [µg/mL]	MIC [1] [µg/mL]	MIC (S. aureus 77) [µg/mL]	MIC (S. aureus 241) [µg/mL]
4,6-diamino-1-{(E)-3-[(6R,7R)-2-carboxy-7-({2-[(2,5-dichlorophenyl)sulfanyl]acetyl}amino)-8-oxo-5-thia-1-azabicyclo[4.2.0]oct-2-en-3-yl]-2-propenyl}-5-methylpyrimidin-1-ium [Compound I-40]	2	0.25	0.016	1	8					
4-amino-1-{(E)-3-[(6R,7R)-2-carboxy-7-({2-[(2,5-dichlorophenyl)sulfanyl]acetyl}amino)-8-oxo-5-thia-1-azabicyclo[4.2.0]oct-2-en-3-yl]-2-propenyl}-2-methyl pyrimidin-1-ium [Compound I-39]	0.5	0.063	<0.008	0.25	2					
Nc1nc(O)cc(SC/C=C/C2=C(C(=O)O)N3C(=O)[C@@H](NC(=O)CSc4cc(Cl)ccc4Cl)[C@H]3SC2)n1 [Compound I-1, (6R,7R)-3-{(E)-3-[(2-amino-6-hydroxy-4-pyrimidinyl)sulfanyl]-1-propenyl}-7-({2-[(2,5-dichlorophenyl)sulfanyl]acetyl}amino)-8-oxo-5-thia-1-azabicyclo[4.2.0]oct-2-ene-2-carboxylic acid]						0.25 (≈ 0.416 µM)	0.13 (≈ 0.216 µM)	< 0.008	0.25 (≈ 0.416 µM)	4 (≈ 6.66 µM)
Nc1cc[n+](C/C=C/C2=C(C(=O)O)N3C(=O)[C@@H](NC(=O)CSc4cc(Cl)ccc4Cl)[C@H]3SC2)cn1 [Compound I-2, 4-amino-1-{(E)-3-[(6R,7R)-2-carboxy-7-({2-[(2,5-dichlorophenyl)sulfanyl]acetyl}amino)-8-oxo-5-thia-1-azabicyclo[4.2.0]oct-2-en-3-yl]-2-propenyl}pyrimidin-1-ium]	1	0.25	<0.008	0.25	4					
Nc1cc(SC/C=C/C2=C(C(=O)O)N3C(=O)[C@@H](NC(=O)CSc4cc(Cl)ccc4Cl)[C@H]3SC2)nc(N)n1 [Compound I-3, (6R,7R)-3-{(E)-3-[(2,6-diamino-4-pyrimidinyl)sulfanyl]-1-propenyl}-7-({2-[(2,5-dichlorophenyl)sulfanyl]acetyl}amino)-8-oxo-5-thia-1-azabicyclo[4.2.0]oct-2-ene-2-carboxylic acid]						0.5 (≈ 0.834 µM)	0.13 (≈ 0.217 µM)	< 0.008	0.13 (≈ 0.217 µM)	4 (≈ 6.67 µM)
Nc1cc[n+](N)c(SC/C=C/C2=C(C(=O)O)N3C(=O)[C@@H](NC(=O)CSc4cc(Cl)ccc4Cl)[C@H]3SC2)n1 [Compound I-4, 1,4-diamino-2-({(E)-3-[(6R,7R)-2-carboxy-7-({2-[(2,5-dichlorophenyl)sulfanyl]acetyl}amino)-8-oxo-5-thia-1-azabicyclo[4.2.0]oct-2-en-3-yl]-2-propenyl}sulfanyl) pyrimidin-1-ium]	0.5	0.13	<0.008	0.13	1					
Nc1cc(SC/C=C/C2=C(C(=O)O)N3C(=O)[C@@H](NC(=O)CNc4cc(Cl)ccc4Cl)[C@H]3SC2)nc(N)n1 [Compound I-5]	1	0.5	0.031	0.5	16					
Nc1cc[n+](N)c(SCC2=C(C(=O)O)N3C(=O)[C@@H](NC(=O)CSc4cc(Cl)ccc4Cl)[C@H]3SC2)n1 [Compound I-6, 1,4-diamino-2-({[(6R,7R)-2-carboxy-7-({2-[(2,5-dichlorophenyl)sulfanyl]acetyl}amino)-8-oxo-5-thia-1-azabicyclo[4.2.0]oct-2-en-3-yl]methyl}sulfanyl)pyrimidin-1-ium]	4	0.063	<0.008	0.031	4					
Nc1nc(SC/C=C/C2=C(C(=O)O)N3C(=O)[C@@H](NC(=O)CSc4cc(Cl)ccc4Cl)[C@H]3SC2)nc2c1CCC2 [Compound I-20, (6R,7R)-3-{(E)-3-[(4-amino-6,7-dihydro-5H-cyclopenta[d]pyrimidin-2-yl)sulfanyl]-1-propenyl}-7-({2-[(2,5-dichlorophenyl)sulfanyl]acetyl}amino)-8-oxo-5-thia-1-azabicyclo[4.2.0]oct-2-ene-2-carboxylic acid]						2 (≈ 3.2 µM)	2 (≈ 3.2 µM)	0.063 (≈ 0.101 µM)	2 (≈ 3.2 µM)	32 (≈ 51.2 µM)
Nc1nc(SC/C=C/C2=C(C(=O)O)N3C(=O)[C@@H](NC(=O)CSc4cc(Cl)ccc4Cl)[C@H]3SC2)c2c([n+]1N)CCC2 [Compound I-21]	0.25	0.063	<0.008	0.063	1					
C[n+]1c(N)cc(SC/C=C/C2=C(C(=O)O)N3C(=O)[C@@H](NC(=O)CSc4cc(Cl)ccc4Cl)[C@H]3SC2)nc1N [Compound I-22, (6R,7R)-2,6-diamino-4-({(E)-3-[2-carboxy-7-({2-[(2,5-dichlorophenyl)sulfanyl]acetyl}amino)-8-oxo-5-thia-1-azabicyclo[4.2.0]oct-2-en-3-yl]-2-propenyl}sulfanyl)-1-methylpyrimidin-1-ium]	0.25	0.063	<0.008	0.063	1					
CNCc1c(N)nc(SC/C=C/C2=C(C(=O)O)N3C(=O)[C@@H](NC(=O)CSc4cc(Cl)ccc4Cl)[C@H]3SC2)[n+](C)c1N [Compound I-23, (6R,7R)-4,6-diamino-2-({(E)-3-[2-carboxy-7-({2-[(2,5-dichlorophenyl)sulfanyl]acetyl}amino)-8-oxo-5-thia-1-azabicyclo[4.2.0]oct-2-en-3-yl]-2-propenyl}sulfanyl)-1-methyl-5-[(methylamino)methyl]pyrimidin-1-ium]	1	0.25	0.016	0.25	4					
Nc1cc(N)nc(SC/C=C/C2=C(C(=O)O)N3C(=O)[C@@H](NC(=O)CSc4cc(Cl)ccc4Cl)[C@H]3SC2)n1 [Compound I-24, (6R,7R)-3-{(E)-3-[(4,6-diamino-2-pyrimidinyl)sulfanyl]-1-propenyl}-7-({2-[(2,5-dichlorophenyl)sulfanyl]acetyl}amino)-8-oxo-5-thia-1-azabicyclo[4.2.0]oct-2-ene-2-carboxylic acid]						0.5 (≈ 0.834 µM)	0.13 (≈ 0.217 µM)	0.016 (≈ 0.0267 µM)	0.25 (≈ 0.417 µM)	4 (≈ 6.67 µM)
Nc1ncnc(SC/C=C/C2=C(C(=O)O)N3C(=O)[C@@H](NC(=O)CSc4cc(Cl)ccc4Cl)[C@H]3SC2)c1N [Compound I-25, (6R,7R)-3-{(E)-3-[(5,6-diamino-4-pyrimidinyl)sulfanyl]-1-propenyl}-7-({2-[(2,5-dichlorophenyl)sulfanyl]acetyl}amino)-8-oxo-5-thia-1-azabicyclo[4.2.0]oct-2-ene-2-carboxylic acid]						2 (≈ 3.34 µM)	1 (≈ 1.67 µM)	0.063 (≈ 0.105 µM)	0.5 (≈ 0.834 µM)	16 (≈ 26.7 µM)
